Results on one molecule are retold here after patent US20090155784A1, “ASSESSMENT OF ASTHMA AND ALLERGEN-DEPENDENT GENE EXPRESSION” (Wyeth, priority 2007, published 2009).

One assay concerns human whole blood. As to the kind of experiment: human whole blood assay verifying inhibitory activity of the inhibitor samples. It counts as cell-based.
Assay [1] has as its system PBMCs from asthma subjects. As to the kind of experiment: HG-U133A baseline gene expression in PBMCs of asthma subjects (AOS), cPLA2 inhibitor in the absence of allergen (no AG). It counts as cell-based, human. An excerpt: PBMCs were stimulated in vitro with a cocktail containing 4 different allergens from house dust mite, ragweed and cat. Recombinant allergens, Der p1, Der f2, Fel d1 (Indoor Biotech, Charlottesville, Va.) and natural ragweed allergen (Allergy Lab, Seattle, Wash.) were selected and screened for endotoxin contamination (LAL Endotoxin Test, Catalog #HIT302, sensitivity, 0.0001 Eu/ml, Cell Sciences, Canton, Mass.). The sensitivity of the subjects was unknown but the allergens were chosen based on the estimate that 80% of allergic individuals are believed to react to one or more of these allergens. Culture medium contained RPMI-1640 (Sigma) with 10% heat inactivated FCS (Sigma St. Louis, Mo.) and 100 unit/mL Penicillin and […] Streptomycin and 0.292 mg/mL Glutamine (GIBCO RL Invitrogen, Carlsbad, Calif.). The final allergen cocktail concentrations in culture medium were: Der p1 and Der f2 (dust mite), 1 mg/ml; Fel d1 (cat), 1.25 mg/ml; ragweed, 125 mg/ml. […]
RNA was purified using QIA shredders and Rneasy mini kits (Qiagen, Valencia, Calif.). […] Eluted RNA was quantified using a Spectramax96 well plate UV reader (Molecular Devices, Sunnyvale, Calif., USA) monitoring A260/280 OD values. The quality of each RNA sample was assessed by capillary electrophoresis alongside an RNA molecular weight ladder on the Agilent 2100 bioanalyzer (Agilent Technologies, Palo Alto, Calif., USA). […]

`Cc1cccc(C)c1CS(=O)(=O)NCCc1c(CCCc2ccc(C(=O)O)cc2)c2cc(Cl)ccc2n1C(c1ccccc1)c1ccccc1` [cPLA2 inhibitor, 4-{3-[1-benzhydryl-5-chloro-2-(2-{[(2,6-dimethylbenzyl)sulfonyl]amino}ethyl)-1H-indol-3-yl]propyl}benzoic acid]: the “inhibitory activity in a human whole blood assay” value with human whole blood is “verified”. In addition, the “effect on gene expression in the absence of allergen stimulation, asthmatic population” value in assay [1] was “does not affect gene expression”.
